Our source for the IC50 values is article PMC3000536 (Tetrahedron letters, 2011).

What all share (type): biochemical
The target of one test is Snail β-Mannosidase. The experiment in a line: Glycosidase inhibition, snail β-mannosidase. To be noted: read-out: IC50 β-Mannosidase Snail.
The target of the next test is Almond β-Glucosidase. In words: Glycosidase inhibition, almond β-glucosidase. To be noted: read-out: IC50 β-Glucosidase Almond.
The target in test [1] is Coffee beans α-Galactosidase (Coffea arabica, UniProt Q42656). In words: Glycosidase inhibition, coffee beans α-galactosidase.
Sequence of Coffee beans α-Galactosidase (Q42656 16-378): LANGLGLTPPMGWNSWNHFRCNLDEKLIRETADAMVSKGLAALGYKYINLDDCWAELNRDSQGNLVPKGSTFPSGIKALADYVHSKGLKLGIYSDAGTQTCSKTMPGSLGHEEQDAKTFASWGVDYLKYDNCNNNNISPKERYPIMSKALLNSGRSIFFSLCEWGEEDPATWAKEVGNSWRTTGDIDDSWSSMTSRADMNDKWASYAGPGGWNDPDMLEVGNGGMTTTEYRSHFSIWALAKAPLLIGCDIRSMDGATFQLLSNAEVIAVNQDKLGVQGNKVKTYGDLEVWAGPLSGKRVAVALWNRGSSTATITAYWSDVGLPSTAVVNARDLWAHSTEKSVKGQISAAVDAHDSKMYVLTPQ
The target in test [2] is Bovine liver β-Galactosidase. In words: Glycosidase inhibition, bovine liver β-galactosidase. The settings on record: read-out: IC50 β-Galactosidase Bovine liver.
The target in test [3] is T1, Rat intestinal cellobiase (Rattus norvegicus, UniProt Q02401).
T1 sequence (Q02401 868-1928): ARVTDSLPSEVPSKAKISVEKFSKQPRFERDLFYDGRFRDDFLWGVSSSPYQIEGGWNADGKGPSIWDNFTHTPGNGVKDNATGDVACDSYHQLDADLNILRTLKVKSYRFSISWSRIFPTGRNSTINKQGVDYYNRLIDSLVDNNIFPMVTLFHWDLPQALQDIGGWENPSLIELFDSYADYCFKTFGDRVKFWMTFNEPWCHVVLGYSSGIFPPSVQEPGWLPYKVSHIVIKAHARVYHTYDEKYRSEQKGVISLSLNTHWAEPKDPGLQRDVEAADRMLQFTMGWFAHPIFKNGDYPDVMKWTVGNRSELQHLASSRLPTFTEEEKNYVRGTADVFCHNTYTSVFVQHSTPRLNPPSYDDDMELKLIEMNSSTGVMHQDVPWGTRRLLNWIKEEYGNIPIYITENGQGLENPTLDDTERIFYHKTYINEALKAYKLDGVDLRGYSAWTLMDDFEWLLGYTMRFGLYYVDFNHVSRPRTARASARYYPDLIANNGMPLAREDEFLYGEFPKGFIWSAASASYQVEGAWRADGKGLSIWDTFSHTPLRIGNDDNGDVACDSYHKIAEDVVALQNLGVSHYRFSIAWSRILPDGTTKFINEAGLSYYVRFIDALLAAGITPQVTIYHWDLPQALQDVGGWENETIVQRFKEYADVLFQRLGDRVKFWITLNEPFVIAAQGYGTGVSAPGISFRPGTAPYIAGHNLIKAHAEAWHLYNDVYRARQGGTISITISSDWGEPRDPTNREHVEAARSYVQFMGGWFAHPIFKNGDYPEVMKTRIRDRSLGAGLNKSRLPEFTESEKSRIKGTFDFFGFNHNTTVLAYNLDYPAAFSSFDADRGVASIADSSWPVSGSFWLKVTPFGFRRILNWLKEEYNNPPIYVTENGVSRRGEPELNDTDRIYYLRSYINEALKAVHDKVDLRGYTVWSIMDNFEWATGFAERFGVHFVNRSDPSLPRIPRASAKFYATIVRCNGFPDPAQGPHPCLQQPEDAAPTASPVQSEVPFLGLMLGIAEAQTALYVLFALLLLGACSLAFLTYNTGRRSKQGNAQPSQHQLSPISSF
In words: Glycosidase inhibition, rat intestinal cellobiase.

Test [4] addresses T2, Bovine epididymis α-L-Fucosidase (Bos taurus, UniProt Q2KIM0).
T2 sequence (Q2KIM0 23-468): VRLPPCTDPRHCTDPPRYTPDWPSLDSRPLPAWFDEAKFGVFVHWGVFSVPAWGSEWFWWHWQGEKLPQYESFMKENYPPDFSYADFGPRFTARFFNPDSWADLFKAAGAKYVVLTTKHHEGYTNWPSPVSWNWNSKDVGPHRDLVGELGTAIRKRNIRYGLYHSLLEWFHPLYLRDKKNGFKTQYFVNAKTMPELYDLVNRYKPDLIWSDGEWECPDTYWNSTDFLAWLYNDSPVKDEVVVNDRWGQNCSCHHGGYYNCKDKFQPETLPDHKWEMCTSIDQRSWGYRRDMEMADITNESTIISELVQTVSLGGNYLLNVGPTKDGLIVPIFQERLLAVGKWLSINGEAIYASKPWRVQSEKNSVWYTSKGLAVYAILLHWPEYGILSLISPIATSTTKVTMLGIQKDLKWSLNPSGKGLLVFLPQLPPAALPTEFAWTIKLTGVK
In words: Glycosidase inhibition, bovine epididymis α-L-fucosidase.

The next test addresses T3, Jack beans α-Mannosidase (Canavalia ensiformis, UniProt C0HJB3).
T3 sequence (C0HJB3 1-981): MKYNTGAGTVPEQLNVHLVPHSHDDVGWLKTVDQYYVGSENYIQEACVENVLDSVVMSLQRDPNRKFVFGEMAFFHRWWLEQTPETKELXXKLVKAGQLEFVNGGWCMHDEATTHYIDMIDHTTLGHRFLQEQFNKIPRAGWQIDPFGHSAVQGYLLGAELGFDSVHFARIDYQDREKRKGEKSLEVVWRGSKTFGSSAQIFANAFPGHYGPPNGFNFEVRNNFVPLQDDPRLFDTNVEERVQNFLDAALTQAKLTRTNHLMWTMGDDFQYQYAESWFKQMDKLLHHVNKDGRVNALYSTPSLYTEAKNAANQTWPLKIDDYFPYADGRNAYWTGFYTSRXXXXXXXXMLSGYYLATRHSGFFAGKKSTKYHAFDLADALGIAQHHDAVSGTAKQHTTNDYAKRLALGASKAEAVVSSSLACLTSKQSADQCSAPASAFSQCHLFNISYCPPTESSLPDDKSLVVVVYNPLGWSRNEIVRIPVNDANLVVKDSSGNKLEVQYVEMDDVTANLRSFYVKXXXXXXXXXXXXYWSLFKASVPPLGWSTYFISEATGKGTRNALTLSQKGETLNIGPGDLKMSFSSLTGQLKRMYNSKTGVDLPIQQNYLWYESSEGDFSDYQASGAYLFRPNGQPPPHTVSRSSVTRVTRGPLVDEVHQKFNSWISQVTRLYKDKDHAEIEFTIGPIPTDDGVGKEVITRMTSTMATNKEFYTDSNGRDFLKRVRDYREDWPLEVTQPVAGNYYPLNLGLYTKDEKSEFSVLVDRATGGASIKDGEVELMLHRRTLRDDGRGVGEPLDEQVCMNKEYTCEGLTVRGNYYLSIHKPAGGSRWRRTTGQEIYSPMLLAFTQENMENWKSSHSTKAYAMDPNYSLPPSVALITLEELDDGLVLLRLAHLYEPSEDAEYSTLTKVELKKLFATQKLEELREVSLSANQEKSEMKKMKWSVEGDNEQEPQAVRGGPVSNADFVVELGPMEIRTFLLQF
In words: Glycosidase inhibition, jack beans α-mannosidase.

The pIC50 is the IC50 on a negative log10 scale, so that one unit is a factor of ten.

The structures appear in SMILES notation. pIC50: −log10 of the molar value.

For the compound `OC[C@@H]1NC[C@H](O)[C@H]1O` [LAB 3L], the pIC50 (on Snail β-Mannosidase; on Almond β-Glucosidase; in test [1]; in test [2]; in test [3]; in test [4]) was less than 3.00 each time. Also, on Jack beans α-Mannosidase, the pIC50 is less than 3.00.
Regarding `OC[C@H]1NC[C@@H](O)[C@@H]1O` [DAB 3D], the pIC50 on Snail β-Mannosidase is less than 3.00; on Almond β-Glucosidase, 3.60; in test [1], less than 3.00; in test [2], less than 3.00; in test [3], 3.12; in test [4] it was less than 3.00.
